Broadly, the EC50 is the midpoint of the concentration-response curve. What is called Emax is the size of the effect at its maximum, as opposed to the concentration needed.

This assay addresses T1, TRAP1 enzyme (Homo sapiens, UniProt Q12931).
T1 sequence (Q12931 60-704): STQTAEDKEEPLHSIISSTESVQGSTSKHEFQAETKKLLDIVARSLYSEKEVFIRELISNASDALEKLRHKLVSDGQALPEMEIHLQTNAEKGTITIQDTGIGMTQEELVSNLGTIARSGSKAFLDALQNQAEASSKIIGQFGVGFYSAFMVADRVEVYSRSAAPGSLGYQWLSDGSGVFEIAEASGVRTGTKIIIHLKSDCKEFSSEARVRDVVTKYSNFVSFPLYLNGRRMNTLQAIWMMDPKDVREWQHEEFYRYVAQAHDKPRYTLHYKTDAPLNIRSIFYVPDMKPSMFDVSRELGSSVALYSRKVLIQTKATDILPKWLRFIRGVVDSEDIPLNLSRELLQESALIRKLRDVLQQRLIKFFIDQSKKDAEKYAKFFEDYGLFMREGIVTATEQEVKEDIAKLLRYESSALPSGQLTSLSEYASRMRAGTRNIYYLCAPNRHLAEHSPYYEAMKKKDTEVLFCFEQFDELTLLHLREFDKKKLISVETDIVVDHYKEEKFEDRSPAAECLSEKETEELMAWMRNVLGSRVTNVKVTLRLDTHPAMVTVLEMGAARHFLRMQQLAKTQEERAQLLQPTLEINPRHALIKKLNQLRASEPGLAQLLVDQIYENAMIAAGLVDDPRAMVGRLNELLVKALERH
Nature of the assay: ADP Glo assay (ATPase activity of TRAP1). Type of assay: biochemical. Particulars: for EC50: 150 nM Trap1, 20 µM ATP, concentration for half maximal activation, read-out: ADP GLO DRC: GeoMean EC50; for Emax: maximal percent activation, read-out: ADP GLO DRC: Mean Emax. The method in brief: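 150 nM TRAP1 preincubated 30 min at 37 °C with compound (0.79–100 µM) in 25 mM Pipes pH 7.5, 40 mM KCl, 0.05 mM MgCl2; reaction started with 20 µM ATP, 60 min at 37 °C. ADP quantified by ADP-Glo luminescence against an ATP/ADP standard curve; Emax and EC50 from sigmoidal fits of activation.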
(ADP-Glo turns the ADP formed in a reaction into a luminescent signal.)

For `Cc1ccnc(C(=O)Nc2ccc3c(c2)S(=O)(=O)N(c2ccc(C(F)(F)F)cc2)CCO3)n1` [Compound 2261], the EC50 was 30 to 100 µM and the Emax lay in the range of 150 to 200%.

On to `Cc1c(C(=O)Nc2ccc3c(c2)S(=O)(=O)N(c2ccc(C(F)(F)F)cc2)CCO3)cnn1C` [Compound 2295], for which the EC50 was in the range of 30 to 100 µM and the Emax is more than 200%.

For `O=C(Nc1ccc2c(c1)S(=O)(=O)N(c1ccc(C(F)(F)F)cc1)CCO2)c1ccncc1` [Compound 2234], the EC50 is 20 to 30 µM and the maximum response (Emax) was 150 to 200%.

Take `CC(C)c1oncc1C(=O)Nc1ccc2c(c1)S(=O)(=O)N(c1ccc(C(F)(F)F)cc1)CCO2` [Compound 2202]: the EC50 lay in the range of 30 to 100 µM and the Emax was 150 to 200%.

With `O=C(Nc1ccc2c(c1)S(=O)(=O)N(c1ccc(C(F)(F)F)cc1)CCO2)c1csc(-c2ccccc2)n1` [Compound 2503], the EC50 is 30 to 100 µM and the Emax lay within 129 to 149%.
